d = 2'-deoxy (DNA); r = 2'-OH (RNA)
Assays:
recombinant MIF (rMIF) = target: T1, recombinant MIF (rMIF) (Homo sapiens, UniProt P14174); test: L-dopachrome methyl ester tautomerase assay; type: biochemical
T1 construct: made in house
T1 sequence (P14174 2-115 limits assumed): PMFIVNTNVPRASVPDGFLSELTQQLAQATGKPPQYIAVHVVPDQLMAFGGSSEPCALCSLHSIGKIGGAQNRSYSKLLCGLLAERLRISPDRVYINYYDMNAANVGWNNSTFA
Procedure: 500 nM recombinant MIF (rMIF) was pre-mixed for either 5 (filled) or 10 (open) minutes with the indicated inhibitor concentrations followed by the addition of 2 mM final concentration of L-dopachrome methyl ester substrate. 5 minutes later OD 475 was measured spectrophotometrically, with tautomerization leading to colorless substrate.
Dopachrome tautomerase assay. […] MIF catalysis and inhibitory studies can be performed as described (Lubetsky et al., 2002). […] Activity can be determined at room temperature by adding dopachrome methyl ester (0.3 ml) to a cuvette containing 500 nM rMIF (Bernhagen et al., 1994) in 50 mM potassium phosphate buffer, pH 6, 0.5 mM EDTA and 5 minutes later measuring the decrease in absorbance at 475 nm spectrophotometrically. […] Additionally, candidate inhibitors identified in the last section of the present Example can be dissolved in DMSO at various concentrations and added to the cuvette (final concentration of DMSO will be no more than 0.1%) with the MIF 1 minute prior to the addition of the dopachrome substrate.

HIF-1α [1] = test: CoCl2-induced HIF-1α stabilization in MIA-PaCa pancreatic adenocarcinoma cells (nuclear lysate immunoblot); type: cell-based, human
Procedure: FIGS. 9A-9C are pictures of immunoblots showing MIF tautomerase inhibitors block HIF-1 stabilization in an MIF-specific manner. […] After 5 hours, nuclear lysates were isolated and subjected to immunoblotting for HIF-1. In FIGS. 9A and 9B, MIA-PaCa pancreatic adenocarcinoma cells were used. In FIG. 9C, MIF+/+ and MIF−/− mouse embryonic fibroblasts were evaluated.
As noted hereinabove, (see FIG. 4), it has been determined that MIF is necessary for hypoxia and prolyl hydroxylase inhibitor-induced HIF-1αstabilization and subsequent hypoxic adaptation of pancreatic adenocarcinoma cells. It was next tested whether MIF pharmacologic inhibitors were capable of recapitulating the destabilizing effects on HIF-1α we had observed using MIF siRNA (FIG. 4). In addition to testing the newly-determined MIF antagonist 4-iodo-6-phenylpyrimidine (also referred to as “compound #16”), the TI compound identified in the Orita screen (FIG. 8) was also tested.

A549 cells = test: A549 cell migration in collagen coated transwell chambers; type: cell-based, human; settings: FIG. 10B
Procedure: In FIG. 10A, 500 nM rMIF was pre-mixed for 30 seconds with the indicated inhibitor concentrations followed by the addition of 2 mM final concentration of L-dopachrome methyl ester substrate. 5 minutes later OD 475 was measured spectrophotometrically (tautomerization leads to colorless substrate) and resulting data graphed. In FIG. 10B, 2×10^5 A549 cells transfected or pre-incubated with the indicated inhibitor or DMSO were added to the upper chamber of collagen coated transwell chambers. 16 hours later cells in the upper chamber were removed by swabbing and the bottom of the membranes were stained with crystal violet, solubilized, read at OD 570, and resulting data graphed.

[2] = test system: A549 human lung adenocarcinoma cells; test: A549 anchorage-independent growth in soft agar; type: cell-based; settings: 10, 50 or 100 μM, 20 days; FIG. 11
Procedure: FIG. 11 is a graph showing inhibitors of MIF prevent anchorage-independent growth. 10^5 A549 human lung adenocarcinoma cells were plated in soft agar, containing vehicle (0.1% DMSO) or 10, 50 or 100 μM ISO-1 or 4-iodo-6-phenylpyrimidine (CMPD 16). 20 days later, colonies were stained and enumerated. Data are representative of two independent experiments.

MIF/sCD74 = target: T2, MIF/sCD74 (Homo sapiens, UniProt P14174); test: MIF/MIF receptor (CD74) capture assay; type: binding; settings: 0.1 μM antagonist against 0.2 μM biotinylated MIF (maximal inhibition possible 50%); FIG. 14B
T2 construct: made in house; host or cells: E. coli BL21 (DE3)pLysS (sCD74)
T2 sequence (P14174 2-115 limits assumed): T1 sequence (P14174 2-115 limits assumed)
Procedure: FIGS. 14A-14C are a schematic (FIG. 14C) of a MIF/MIF receptor capture assay and graphs of data collected from the assay (FIGS. 14A and 14B) that provides a tool for structure-function studies of MIF muteins and candidate inhibitors. […] FIG. 14A is a graph of data from the assay where CD74 coated plates were pre-incubated with the indicated concentrations of native MIF (MIF), denatured MIF or P1G MIF followed by the addition of 0.2 μM biotin-hrMIF. FIG. 14B is a graph of data from the assay where 1.0 μM of denatured MIF (dMIF), native MIF (MIF) or anti-CD74 were pre-incubated with soluble CD74 for 30 mins before adding 0.2 μM biotin-hrMIF. For inhibitors, 0.1 μM ISO-1 or 4-iodo-6-phenyl pyrimidine (Cmp16) were pre-incubated for 30 mins with 0.2 μM biotin-hrMIF before adding mixture to CD74 coated plate. In both FIGS. 14A and 14B, plates were developed 2 hours later by incubating Streptavidin-AP followed by PnPP and measurement at OD405.
As previously noted, the ability of small molecule antagonists to block MIFs biological functions requires the blockade of MIF binding to its cell surface receptor (Meyer-Siegler et al., 2006). […]
96 well plates can be coated with 60 μl/well of purified, soluble CD74 (CD74^73-232) at 0.1 mg/ml and incubated at 4° C. overnight. […] After washing, 60 μl/well of PNPP (Sigma) is added and allowed to develop in the dark until being read at 405 nm.

VEGF = test: CoCl2-induced VEGF expression and secretion (ELISA); type: cell-based; settings: read-out: suppression of PHD inhibitor (CoCl2) induced VEGF
Excerpt: It was next tested whether the observed differences in the catalytic inhibitory activities between these two compounds was similarly observed in this biological assay of MIF inhibition. […] Of note, this ˜5 fold difference in biological inhibitory activity closely corresponds to the ˜5 fold difference in enzymatic inhibitory activity that was observed when comparing these two compounds (FIG. 8).

HIF-1α [3] = test: Anoxia-induced HIF-1α stabilization in siRNA transfected MIA-Paca-2 cells; type: cell-based, human; settings: 0.2% O2 (anoxia) 16 hours; FIG. 4A
Procedure: (§1) Nuclear and cytosolic extracts from MIF-depleted cells were exposed to normoxia, anoxia (FIG. 4A) or hypoxia (FIG. 4B) and immunoblotted for HIF-1α. FIG. 4C is a graph showing real time PCR analysis of VEGF mRNA levels from control and MIF-depleted cells exposed to hypoxia for different times.
(§2) MIF-specific siRNA was transfected into MIA-Paca-2 cells before being incubated in 0.2% O2 (anoxia) for 16 hours. […] To more thoroughly investigate the requirements for MIF in hypoxia-mediated HIF-1α stabilization, a time course evaluating MIF containing vs. deficient pancreatic adenocarcinoma cells exposed to 1% O2 (hypoxia) was performed.

MIF = MIF depletion by siRNA in MIA-Paca-2 cells (immunoblot); type: cell-based, human; settings: FIG. 4A
Procedure: as §1, §2

Compound: COC(=O)CC1CC(c2ccc(O)cc2)=NO1 (centres unmarked) [ISO-1, S, R-3-(4-hydroxyphenyl)-4,5-dihydro-5-isoxazole acetic acid methyl ester, reference compound]
- enzyme inhibition at 10 μM (recombinant MIF (rMIF); 10 μM, FIG. 10A): completely inactive
- inhibition of CoCl2-induced HIF-1α stabilization (HIF-1α [1]; concentrations of 100 μM or higher): only moderately effective
- migration inhibition at 10 μM (A549 cells): completely inactive
- inhibition of A549 soft agar growth [2]: inhibit A549 soft agar growth
- inhibition of MIF receptor (CD74) binding (MIF/sCD74): very efficient blocking

Compound: O=c1c(-c2ccc(O)c(O)c2)coc2cc(O)ccc12 [TI, 3′, 4′,7-tryhydroxyisoflavone, reference compound]
- MIF inhibitory activity in applicant's assay compared with reported Ki (recombinant MIF (rMIF); TI from two commercial sources): several orders of magnitude weaker than claimed
- suppression of HIF-1α, of control (HIF-1α [1]; 10 μM, FIG. 9B): no inhibitory activity
- inhibition of HIF-1α stabilization (HIF-1α [1]; 50 μM, FIG. 9B): only slight inhibitory activity
- inhibition at 50 µM (VEGF): ~20%

Compound: MIF siRNA: short interfering RNA (siRNA) oligos designed against human MIF; sense SEQ ID NO:3, antisense SEQ ID NO:4 (sense CCUUCUGGUGGGGAGAAAUTT; antisense AUUUCUCCCCACCAGAAGGTT; sugars from the 5' end r19 d2, backbone not given here)
- HIF-1α stabilization in nuclei after MIF depletion (HIF-1α [3]): completely deficient
- loss of cytoplasmic MIF expression (MIF): greater than 90%

Reference: patent US8999984B2, “Macrophage migration inhibitory factor antagonists and methods of using same” (University of Louisville Research Foundation, Inc., priority 2006, dated 2015)
